Test results reported in US11400059B2, “Treatment of pain and/or pain related symptoms associated with dysmenorrhea” (ALYRA BIOTECH PTY LTD, priority 2017, dated 2022).

Tests used:
Human TLR4 = molecular target: T1, Human TLR4 (Homo sapiens, UniProt O00206+Q9Y6Y9); assay: Human TLR antagonist screening, NF-κB SEAP reporter in HEK293 cells; assay type: cell-based; conditions: antagonist mode, test article 1 μM, +LPS-EK 10 ng/mL, No Sample 14, Control− 1
T1 construct: expressed in transfected cells; host or cells: HEK293
T1 sequence (O00206 24-839): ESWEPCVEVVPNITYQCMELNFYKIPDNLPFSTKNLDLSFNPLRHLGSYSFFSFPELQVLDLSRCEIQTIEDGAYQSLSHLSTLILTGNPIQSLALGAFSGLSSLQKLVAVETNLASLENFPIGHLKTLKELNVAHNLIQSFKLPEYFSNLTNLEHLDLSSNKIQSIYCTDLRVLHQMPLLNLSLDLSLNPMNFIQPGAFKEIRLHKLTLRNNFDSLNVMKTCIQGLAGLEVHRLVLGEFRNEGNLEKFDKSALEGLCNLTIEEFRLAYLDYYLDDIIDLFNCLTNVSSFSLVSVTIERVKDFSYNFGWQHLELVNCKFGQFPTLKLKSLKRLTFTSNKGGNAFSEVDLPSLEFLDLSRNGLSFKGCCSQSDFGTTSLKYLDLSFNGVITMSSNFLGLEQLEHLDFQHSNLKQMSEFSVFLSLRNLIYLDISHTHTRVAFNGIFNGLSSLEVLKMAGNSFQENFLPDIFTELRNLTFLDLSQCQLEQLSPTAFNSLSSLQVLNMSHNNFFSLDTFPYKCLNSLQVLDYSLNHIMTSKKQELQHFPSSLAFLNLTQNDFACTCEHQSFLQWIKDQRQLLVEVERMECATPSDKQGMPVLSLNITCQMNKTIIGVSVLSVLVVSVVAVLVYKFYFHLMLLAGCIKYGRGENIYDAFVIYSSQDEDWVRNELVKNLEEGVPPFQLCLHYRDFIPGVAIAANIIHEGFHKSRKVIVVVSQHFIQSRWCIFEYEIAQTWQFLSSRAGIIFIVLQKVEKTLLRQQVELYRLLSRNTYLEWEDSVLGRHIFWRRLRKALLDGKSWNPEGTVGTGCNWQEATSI
T1 sequence (Q9Y6Y9 19-160): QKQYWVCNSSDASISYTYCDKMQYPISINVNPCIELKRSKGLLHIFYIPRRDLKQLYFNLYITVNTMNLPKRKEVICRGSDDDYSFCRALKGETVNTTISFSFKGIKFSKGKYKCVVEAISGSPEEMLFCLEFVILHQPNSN
Protocol: Toll-Like Receptor (TLR), NOD-Like Receptor (NLR) and C-Type Lectin Receptor (CLR) stimulation were tested by assessing NF-κB activation in HEK293 cells expressing a given TLR, NLR or CLR. The activity of the test articles was tested at one concentration and compared to control ligands. These steps were performed in triplicate. hTLR4: […] In a 96-well plate (200 μL total volume) containing the appropriate cells (50,000-75,000 cells/well), 20 μL of the test article or the positive control ligand was added to the wells. For the antagonist assay, the test article was incubated with the cells, at 37° C. with 5% CO2, for 30 minutes prior to the addition of the positive control ligand to the wells. The media added to the wells was designed for the detection of NF-κB induced SEAP expression. After a 16-24 hr incubation the optical density (OD) was read at 650 nm on a Molecular Devices SpectraMax 340PC absorbance detector. Fold induction (ratio of average induced value to average non-induced value) was determined for each TLR, NOD1, NOD2, Dectin-1a, Dectin-1b.

Human TLR3 = molecular target: T2, Human TLR3 (Homo sapiens, UniProt O15455); assay: as above; assay type: cell-based; conditions: antagonist mode, test article 1 μM, +Poly(I:C) 50 ng/ml, No Sample 14, Control− 1
T2 construct: expressed in transfected cells; host or cells: HEK293
T2 sequence (O15455 24-904): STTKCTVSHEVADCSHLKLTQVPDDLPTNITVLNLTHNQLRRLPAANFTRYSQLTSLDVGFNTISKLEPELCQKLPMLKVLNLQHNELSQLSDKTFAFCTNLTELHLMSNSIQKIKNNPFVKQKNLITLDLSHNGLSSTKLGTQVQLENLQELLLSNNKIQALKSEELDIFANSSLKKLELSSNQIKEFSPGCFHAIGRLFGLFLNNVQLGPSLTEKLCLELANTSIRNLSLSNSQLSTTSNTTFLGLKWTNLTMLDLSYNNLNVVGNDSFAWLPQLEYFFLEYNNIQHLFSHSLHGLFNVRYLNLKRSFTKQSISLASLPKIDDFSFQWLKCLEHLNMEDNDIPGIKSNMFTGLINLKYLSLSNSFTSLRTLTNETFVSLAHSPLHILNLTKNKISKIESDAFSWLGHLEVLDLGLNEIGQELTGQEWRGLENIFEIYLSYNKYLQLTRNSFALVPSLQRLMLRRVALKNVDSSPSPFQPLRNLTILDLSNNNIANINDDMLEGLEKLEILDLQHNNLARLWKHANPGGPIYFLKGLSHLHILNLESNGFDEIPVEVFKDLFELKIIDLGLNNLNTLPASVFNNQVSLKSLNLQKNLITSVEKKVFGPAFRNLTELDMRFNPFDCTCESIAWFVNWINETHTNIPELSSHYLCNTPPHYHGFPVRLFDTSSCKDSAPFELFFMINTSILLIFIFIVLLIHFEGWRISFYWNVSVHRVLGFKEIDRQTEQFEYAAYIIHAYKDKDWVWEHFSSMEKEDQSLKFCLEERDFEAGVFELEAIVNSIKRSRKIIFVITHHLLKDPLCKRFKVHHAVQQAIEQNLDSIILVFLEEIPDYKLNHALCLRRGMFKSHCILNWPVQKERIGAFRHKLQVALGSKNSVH
Protocol: Toll-Like Receptor (TLR), NOD-Like Receptor (NLR) and C-Type Lectin Receptor (CLR) stimulation were tested by assessing NF-κB activation in HEK293 cells expressing a given TLR, NLR or CLR. The activity of the test articles was tested at one concentration and compared to control ligands. These steps were performed in triplicate. hTLR3: Poly(I:C) HMW at 1 μg/mL Antagonist: 50 ng/mL. In a 96-well plate (200 μL total volume) containing the appropriate cells (50,000-75,000 cells/well), 20 μL of the test article or the positive control ligand was added to the wells. For the antagonist assay, the test article was incubated with the cells, at 37° C. with 5% CO2, for 30 minutes prior to the addition of the positive control ligand to the wells. The media added to the wells was designed for the detection of NF-κB induced SEAP expression. After a 16-24 hr incubation the optical density (OD) was read at 650 nm on a Molecular Devices SpectraMax 340PC absorbance detector. Fold induction (ratio of average induced value to average non-induced value) was determined for each TLR, NOD1, NOD2, Dectin-1a, Dectin-1b.

In the case of `CN(C)CCC=C1c2ccccc2CCc2ccccc21` [Amitriptyline], the “Fold Induction” value (Human TLR4) is reported as “slight inhibitory effect”, the “Fold Induction” value (Human TLR4; listed as Ami) is reported as 12 and the “Fold Induction” value (Human TLR3) is reported as “slight inhibitory effect”. The “Fold Induction” value (Human TLR3; listed as Ami) was 12.
For `CNCCC=C1c2ccccc2CCc2ccccc21` [Nortriptyline], the “Fold Induction” value (Human TLR4) was 14, the “Fold Induction” value (Human TLR3) was “slight inhibitory effect” and the “Fold Induction” value (Human TLR3; listed as Nor) was 12.
